From publication PMC2848589, “Raltegravir Is a Potent Inhibitor of XMRV, a Virus Implicated in Prostate Cancer and Chronic Fatigue Syndrome” (PLoS ONE, 2010)
Where a name gives a salt, the structure may show the parent alone.

Assays:
[1] = test system: HIV-1LAI; assay: HIV-1 replication in PHA-stimulated peripheral blood mononuclear cells; assay type: cell-based; conditions: Human immunodeficiency virus 1, PBMC; for EC50: read-out: HIV-1 in PBM cells EC50; for EC90: read-out: HIV-1 in PBM cells EC90
Method: (§1) We tested a total of 45 compounds belonging to different classes of HIV-1 inhibitors, and a few inhibitors of viruses other than retroviruses, for their ability to inhibit XMRV replication in cultured cells. LNCaP and MCF-7 cells were chosen for their ability to support robust in vitro replication of XMRV. […] To determine if a reduction in viral release might be due to toxicity of the compound and not due to specific antiretroviral activity, cellular morphology was monitored every 24 h by microscopic examination, and an MTT [3-(4,5-dimethylthiazol-2-yl)-2,5-diphenyltetrazolium bromide] colorimetric assay was used to measure potential cytotoxicity produced by the compounds. Supernatants were collected every 24 h and assayed for viral release by measuring RT activity. […] For comparison purposes, all compounds evaluated in these studies were also tested against HIV-1LAI in primary human lymphocytes.
(§2) Each well was carefully monitored for signs of cellular toxicity due to the inhibitors by microscopic observation every 24 h. In addition, cell viability was measured using the CellTiter 96 AQueous One Solution cell proliferation assay according to the manufacturer (Promega, Madison, Wis). Viral release from the cells was assayed by measuring RT activity in the supernatant. For this, supernatant from each well was collected every 24 h and frozen at −20°C until it was analyzed by RT assay for viral release as described previously. In brief, oligo(dT)·poly(rA) primer-template assays were performed in the presence of radiolabeled [α-^32P]dTTP and Mn^2+. After incubating the viral supernatants with the RT reaction mix for 1 h at 37°C, samples were spotted onto DE81 DEAE cellulose paper (Whatman) and unincorporated label washed away with 2× SSC (1× SSC = 0.15 M NaCl and 0.015 M sodium citrate). […] Inhibition of viral release as measured on day 6 after inoculation was averaged over 3–5 experiments and plotted. The antiviral EC50 and cytotoxic concentrations (CC50,) was determined from the concentration–response curve using the median effect method. HIV-1 replication assays were performed as described previously using peripheral blood mononuclear cells (PBMC) obtained from the American Red Cross, Atlanta, GA, that were stimulated with phytohemagglutinin (PHA) for 72 hr.

[2] = Cytotoxicity in PBM cells; assay type: cell-based; conditions: human, read-out: HIV-1 in PBM cells CC50
Method: as §2

[3] = Cytotoxicity in MCF-7 cells (MTT / CellTiter 96 AQueous One); assay type: cell-based, human; conditions: human
Method: as §1, §2

[4] = test system: XMRV; assay: XMRV replication in MCF-7 cells (viral release by RT activity in supernatant); assay type: cell-based; conditions: for EC50 / EC90: MCF7, 144 h; for EC50: read-out: XMRV in MCF-7 cells EC50; for EC90: read-out: XMRV in MCF-7 cells EC90; for therapeutic index (TI, the ratio of CC50/EC50): XMRV, MCF-7 cells; for activity against XMRV (in words): tested up to 100 µM, Figure 1
[5] = test system: XMRV; assay: XMRV replication in LNCaP cells (viral release by RT activity in supernatant); assay type: cell-based; conditions: for EC50: read-out: EC50 in LNCaP cells; for EC90: read-out: EC90 in LNCaP cells; for inhibition at 100 µM: read-out: inhibition of XMRV replication
Method: as §1
Viral release from XMRV-infected LNCaP cells in the presence of increasing concentrations of (A) ZDV (B) TDF (C) RAL and (D) L-000870812, was determined by measuring RT activity in the supernatants. […] Cell viability was checked by microscopy, quantified by the MTT assay, and represented by shaded bars. Data for each compound were derived from an average of at least three independent experiments, each performed in duplicate.
293T cells (ATCC, CRL-11268) were transfected with pXMRV1, an infectious clone of XMRV [2]. Virus released in the supernatant was harvested and titrated by inoculating MCF-7 cells, a breast cancer cell line (ATCC, HTB-22) at 70% confluence, with a series of ten-fold dilutions of XMRV in serum-free medium, followed 36–48 hrs later by fixation of cells in paraformaldehyde and processing for immunofluorescence using a rabbit antiserum developed against inactivated XMRV [2]. […] Virus was diluted in serum-free medium and used to inoculate cells at a multiplicity of infection (MOI) of approximately 3, in the presence of various antiviral compounds as described below. LNCaP, a prostate cancer cell line (ATCC, CRL-1740) and MCF-7 cells were grown to about 50% confluence in DMEM containing 10% heat inactivated fetal bovine serum, […]. Cells were washed twice with Dulbecco's phosphate buffered saline (DPBS, Gibco), and incubated with the viral inoculum for 90 min at 37°C in the presence of 95% air and 5% CO2, cells were washed twice with DPBS, detached with Trypsin-EDTA (0.25% Trypsin; Cellgro), and counted. One thousand cells were added to each well of a 96-well plate, along with an equal volume of medium containing the retroviral inhibitor at 2-fold the desired concentration. […] For controls, wells containing water or DMSO at appropriate concentrations were used.
Each well was carefully monitored for signs of cellular toxicity due to the inhibitors by microscopic observation every 24 h. In addition, cell viability was measured using the CellTiter 96 AQueous One Solution cell proliferation assay according to the manufacturer (Promega, Madison, Wis). Viral release from the cells was assayed by measuring RT activity in the supernatant. For this, supernatant from each well was collected every 24 h and frozen at −20°C until it was analyzed by RT assay for viral release as described previously. In brief, oligo(dT)·poly(rA) primer-template assays were performed in the presence of radiolabeled [α-^32P]dTTP and Mn^2+. After incubating the viral supernatants with the RT reaction mix for 1 h at 37°C, samples were spotted onto DE81 DEAE cellulose paper (Whatman) and unincorporated label washed away with 2× SSC (1× SSC = 0.15 M NaCl and 0.015 M sodium citrate).

[6] = test system: MCF-7 cells; assay: Cytotoxicity in MCF-7 cells (MTT / CellTiter 96 AQueous One); assay type: cell-based, human
Method: as §1, §2

[7] = peripheral blood mononuclear (PBM) cells
[8] = MCF-7 cells, read-out: XMRV in MCF-7 cells CC50
[9] = XMRV-infected MCF-7 cells, RT activity in supernatant, day 6

Row | Structure (SMILES) | EC50 [1] | EC90 [1] | CC50 [2, 7] | CC50 [3] | EC50 [4] | EC90 [4] | also measured
1 | Cc1cn([C@H]2C[C@H](N=[N+]=[N-])[C@@H](CO)O2)c(=O)[nH]c1=O [3'-Azido-3'-deoxythymidine (ZDV), 3'-Azido-3'-deoxythymidine] | 0.0052 µM | 0.036 µM | > 100 µM | 65 µM | 0.11 µM | 7.3 µM | therapeutic index (TI, the ratio of CC50/EC50) [4]: 591; EC50 ([5]; LNCaP): 0.14 µM; EC90 ([5]; LNCaP): 1.1 µM
2 | Cc1cn([C@H]2C[C@H](F)[C@@H](CO)O2)c(=O)[nH]c1=O [3'-Fluoro-3'-deoxythymidine (FLT), 3'-Fluoro-3'-deoxythymidine] | 0.00018 µM | 0.005 µM | 13.8 µM | 75.8 µM | 7.9 µM | > 100 µM | inhibition at 100 µM ([5]; LNCaP): > 70%
3 | Nc1nc2c(ncn2C2COC(CO)O2)c(=O)[nH]1 [9-(β-D-1,3-Dioxolan-4-yl)guanine (DXG), 9-(β-D-1,3-Dioxolan-4-yl)guanine] |  |  |  |  |  |  | CC50 [6]: > 100 µM; activity against XMRV (in words) [4]: essentially inactive
4 | Nc1nc2c(ncn2[C@H]2C=C[C@@H](CO)C2)c(=O)[nH]1 [(-)-carbovir (CBV), (-)-carbovir] |  |  |  |  |  |  | CC50 [6]: > 100 µM; inhibition of XMRV replication ([5]; 100 µM, see Table S1 (cell line not given)): greater than 70%
5 | Nc1ccn([C@H]2C=C[C@@H](CO)O2)c(=O)n1 [D4C] |  |  |  |  |  |  | CC50 [6]: > 100 µM
6 | Cc1nnc(C(=O)NC(C)(C)c2nc(C(=O)NCc3ccc(F)cc3)c(O)c(=O)n2C)o1 [Raltegravir (RAL, MK-0518), Raltegravir] | 0.0014 µM | 0.0089 µM |  |  |  |  | CC50 [2]: > 100 µM; CC50 [3, 8]: 92.3 µM; EC50 [4, 9]: 0.005 µM; EC90 [4, 9]: 3.5 µM; therapeutic index (TI, the ratio of CC50/EC50) [4]: 18,460; EC50 ([5]; XMRV-infected LNCaP cells): 0.03 µM; EC90 ([5]; XMRV-infected LNCaP cells): 0.46 µM
7 | Cc1cn([C@H]2C=C[C@@H](CO)O2)c(=O)[nH]c1=O [Stavudine (D4T), Stavudine] | 0.09 µM | 0.49 µM | > 100 µM |  | 75.6 µM | > 100 µM | CC50 [3, 8]: > 100 µM; inhibition at 100 µM ([5]; LNCaP): > 70%
8 | CC(C)OC(=O)OCOP(=O)(CO[C@H](C)Cn1cnc2c(N)ncnc21)OCOC(=O)OC(C)C [Tenofovir disoproxil fumarate (TDF), Tenofovir disoproxil fumarate] | 0.016 µM | 0.18 µM | 17.8 µM | 52.2 µM | 0.24 µM | 15.3 µM | therapeutic index (TI, the ratio of CC50/EC50) [4]: 218; EC50 ([5]; LNCaP): 0.9 µM; EC90 ([5]; LNCaP): 4.2 µM
9 | Nc1ncnc2c1ncn2[C@@H]1O[C@H](CO)[C@@H](O)[C@@H]1O [Vidarabine (ara-A), Vidarabine] | 30.6 µM | > 100 µM | > 100 µM | 50.5 µM | 4.4 µM | > 100 µM | 
10 | O=c1[nH]cnc2c1ncn2[C@H]1CC[C@@H](CO)O1 [Videx (DDI), Videx] | 0.29 µM | 2.2 µM | > 100 µM | > 100 µM | > 100 µM | > 100 µM | activity against XMRV (in words) [4]: essentially inactive
11 | Nc1ccn(C[C@@H](CO)OCP(=O)(O)O)c(=O)n1 [Vistide (HPMPC), Vistide] | > 100 µM | > 100 µM | > 100 µM |  | 85.3 µM | > 100 µM | CC50 [3, 8]: > 100 µM
12 | Nc1ccn([C@H]2CC[C@@H](CO)O2)c(=O)n1 [Zalcitabine (ddC), Zalcitabine] | 0.044 µM | 0.31 µM | > 100 µM | 89.8 µM | > 100 µM | > 100 µM | 
